Reference: patent publication US11098056B2, “UDP glycosyltransferase inhibitors and methods of use” (GENZYME CORPORATION, priority 2018, dated 2021)
Where a name gives a salt, the structure may show the parent alone.

How the values were obtained:
UGT8 [1] = biological target: T1, UGT8 (Mus musculus, UniProt Q64676); assay: Acute in vivo target engagement in mouse kidney: inhibition of de novo GalCer and SFT synthesis (13C-Gal incorporation); conditions: 5 hr
T1 construct: Groups of 5 male C57Bl/6 mice, 6-9 wks of age (Charles River Laboratories); tissue Charles River Laboratories; host or cells: mouse kidney (adult C57Bl/6) and mid-/hind brain (neonatal P14-P21 mice)
T1 sequence (Q64676 21-541): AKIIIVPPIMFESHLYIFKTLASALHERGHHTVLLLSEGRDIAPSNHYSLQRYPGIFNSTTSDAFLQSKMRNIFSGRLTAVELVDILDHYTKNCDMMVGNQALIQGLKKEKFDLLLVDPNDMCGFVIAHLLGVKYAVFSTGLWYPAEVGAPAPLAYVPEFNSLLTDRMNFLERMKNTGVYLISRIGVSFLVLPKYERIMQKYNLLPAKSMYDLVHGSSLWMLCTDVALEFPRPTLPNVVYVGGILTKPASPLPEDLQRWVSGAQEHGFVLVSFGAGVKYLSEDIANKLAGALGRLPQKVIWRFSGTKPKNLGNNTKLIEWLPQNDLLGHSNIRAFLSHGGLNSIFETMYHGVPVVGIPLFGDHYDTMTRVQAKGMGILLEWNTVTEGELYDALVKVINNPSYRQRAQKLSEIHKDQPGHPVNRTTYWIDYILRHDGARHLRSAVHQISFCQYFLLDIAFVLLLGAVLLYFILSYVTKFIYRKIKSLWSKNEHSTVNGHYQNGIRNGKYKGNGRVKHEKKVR
Protocol: In vivo target engagement was initially assessed in an adult mouse kidney model assessing de novo synthesis inhibition. This model was selected because the high rate of GalCer and SFT synthesis and turnover in kidney facilitated development of an acute one-day model assessing the effect of a single administration of compound at different doses. Inhibition of de novo synthesis was determined by measuring the amount of 13C6 galactose (13C-Gal; CIL, cat #CLM-1570-pk) incorporated into GalCer and SFT.
Groups of 5 male C57Bl/6 mice, 6-9 wks of age (Charles River Laboratories) were maintained in an ALAAC-accredited vivarium with food and water ad libitum and were allowed to acclimate one week before initiating studies. Three to 5 dose groups received test article formulated in a clinically-acceptable formulation, administered by oral gavage; the control group received vehicle alone. One hr after administration of test article, animals received an intraperitoneal (i.p.) injection of 13C-Gal (3 g/kg); 5 hr after administration of test article, animals were euthanized and a kidney was removed and divided into two longitudinal samples that were snap-frozen and stored at −80° C. until processing for test article tissue exposure and lipid analysis (GalCer and SFT). Typically, brain and plasma samples were also collected for test article exposure.
Mass Spectrometer Analysis of SFT
Quantitative analysis of sphingolipids (SLs) was performed using liquid chromatography with tandem mass spectrometry analysis (LC-MS/MS). Briefly, to extract glucosylceramide (GlcCer), galactosylceramide (GalCer), and sulfatide (ST), an aliquot of 10 μL of mouse tissue homogenate (100 mg/ml in water) was mixed with 1 mL of extraction solution (0.2% Formic Acid; 5 mM Ammonium formate in (50:50) Methanol:Acetonitrile (v/v) with internal standards (IS)). C17-ST and D35 labeled C18-GalCer were used for IS. The mixtures were vortexed and centrifuged. The resulting supernatants were transferred to HPLC vials for LC-MS/MS analysis. GlcCer and GalCer were separated using a Waters Acquity UPLC and Atlantis HILIC Silica column (2.1 mm×150 mm, […], Waters Corp., Milford, Mass.) and analyzed by an API 5000 triple quadrupole mass spectrometer in MRM mode (Applied Biosystems, Foster City, Calif.). ST were analyzed using a Waters Acquity UPLC and BEH C18 column (2.1 mm×50 mm, […], Waters Corp., Milford, Mass.) and analyzed by an API 6500 triple quadrupole mass spectrometer in MRM mode (Applied Biosystems, Foster City, Calif.).

UGT8 [2] = biological target: T2, UGT8 (Homo sapiens, UniProt Q16880); assay: In vitro sulfatide (SFT) synthesis inhibition in OE19 cells, LC-MS/MS readout; format: cell-based; conditions: 72 hr, sulfatide by LC-MS/MS, read-out: Potency range (IC50, In-vitro SFT)
T2 construct: host or cells: OE19 cells
T2 sequence (Q16880 21-541): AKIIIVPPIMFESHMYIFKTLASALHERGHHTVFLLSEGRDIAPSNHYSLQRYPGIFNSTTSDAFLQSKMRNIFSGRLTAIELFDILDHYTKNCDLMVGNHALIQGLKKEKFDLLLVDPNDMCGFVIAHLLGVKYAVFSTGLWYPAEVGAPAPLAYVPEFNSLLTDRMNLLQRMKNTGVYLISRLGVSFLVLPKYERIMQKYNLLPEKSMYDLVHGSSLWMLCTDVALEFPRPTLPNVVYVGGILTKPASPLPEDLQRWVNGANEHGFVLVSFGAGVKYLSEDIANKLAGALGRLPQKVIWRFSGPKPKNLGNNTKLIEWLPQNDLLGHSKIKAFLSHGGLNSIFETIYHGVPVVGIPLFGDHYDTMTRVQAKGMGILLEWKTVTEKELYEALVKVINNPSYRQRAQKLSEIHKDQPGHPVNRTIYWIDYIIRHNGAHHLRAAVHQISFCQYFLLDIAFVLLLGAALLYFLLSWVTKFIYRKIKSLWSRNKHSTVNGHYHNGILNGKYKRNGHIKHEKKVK
Method in brief: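 OE19 cells, 2,500/well, exposed to compound dose-downs in triplicate for 72 hr at 37° C (screening at 10 μM final). Sulfatide quantified by LC-MS/MS (C8 UPLC, isocratic, negative-ion MRM) with C17 SFT internal standard; IC50 from concentration-response curves.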

Which “kidney GalCer % inh” value (UGT8 [1]; single oral dose 3 mg/kg) does the source give for `CNC(=O)c1csc2c(C(F)(F)F)cc(N3CCC(OC(=O)NCC4CC4)CC3)nc12` [Example 475, 1-(3-(Methylcarbamoyl)-7-(trifluoromethyl)thieno[3,2-b]pyridin-5-yl)piperidin-4-yl (cyclopropylmethyl)carbamate trifluoroacetate] here?
The value was “C (C < 40%)”.

And the “kidney GalCer % inh” value (UGT8 [1]; single oral dose 10 mg/kg)?
The value was “B (40% < B < 80%)”.

What about the “kidney GalCer % inh” value (UGT8 [1]; single oral dose 50 mg/kg) of the same compound?
Its value is “B (40% < B < 80%)”.

Which IC50 (UGT8 [2]) does the source give for `CNC(=O)c1csc2c(C(F)(F)F)cc(N3CCC(OC(=O)N[C@@H](C)CF)CC3)nc12` [Example 693, [1-[3-(Methylcarbamoyl)-7-(trifluoromethyl)thieno[3,2-b]pyridin-5-yl]-4-piperidyl] N-[(1S)-2-fluoro-1-methyl-ethyl]carbamate] here?
Its IC50 is < 100 nM.

And the “kidney GalCer % inh” value (UGT8 [1]; single oral dose 1 mg/kg)?
Its value is “C (C < 40%)”.

And the “kidney Sulfatide % inh” value (UGT8 [1]; single oral dose 1 mg/kg)?
The value was “C (C < 40%)”.

What about the “kidney GalCer % inh” value (UGT8 [1]; single oral dose 3 mg/kg) of the same compound?
The value was “C (C < 40%)”.

And the “kidney Sulfatide % inh” value (UGT8 [1]; single oral dose 3 mg/kg)?
Its value is “C (C < 40%)”.

What about the “kidney GalCer % inh” value (UGT8 [1]; single oral dose 10 mg/kg) of the same compound?
Its value is “B (40% < B < 80%)”.

And the “kidney Sulfatide % inh” value (UGT8 [1]; single oral dose 10 mg/kg)?
The value was “A (A > 80%)”.

How did the IC50 (UGT8 [2]) turn out when `CNC(=O)c1csc2c(C(F)(F)F)cc(N3CC[C@H](OC(=O)NC(C)C)[C@@H](F)C3)nc12` [Example 496, (3S,4S)-3-Fluoro-1-(3-(methylcarbamoyl)-7-(trifluoromethyl)thieno[3,2-b]pyridin-5-yl)piperidin-4-yl isopropylcarbamate] was run?
Its IC50 is < 100 nM.

And the “kidney GalCer % inh” value (UGT8 [1]; single oral dose 10 mg/kg)?
The value was “A, A, A (A > 80%)”.

What about the “kidney Sulfatide % inh” value (UGT8 [1]; single oral dose 10 mg/kg) of the same compound?
The value was “A, A, A (A > 80%)”.

What about the “kidney GalCer % inh” value (UGT8 [1]; single oral dose 30 mg/kg) of the same compound?
Its value is “A, A, A (A > 80%)”.

What about the “kidney Sulfatide % inh” value (UGT8 [1]; single oral dose 30 mg/kg) of the same compound?
The value was “A, A, A (A > 80%)”.

What about the “kidney GalCer % inh” value (UGT8 [1]; single oral dose 100 mg/kg) of the same compound?
Its value is “A, A, A (A > 80%)”.

And the “kidney Sulfatide % inh” value (UGT8 [1]; single oral dose 100 mg/kg)?
The value was “A, A, A (A > 80%)”.

With `CC(C)NC(=O)O[C@H]1CCN(c2cc(C(F)(F)F)c3scc(C(=O)N4CCC4)c3n2)C[C@@H]1F` (racemic) [Example 441, (+/−)-trans-1-(3-(Azetidine-1-carbonyl)-7-(trifluoromethyl)thieno[3,2-b]pyridin-5-yl)-3-fluoropiperidin-4-yl isopropylcarbamate] as the compound, how does the IC50 (UGT8 [2]) read?
The IC50 was < 100 nM.

How did the IC50 (UGT8 [2]) turn out when `CNC(=O)c1csc2c(C(F)(F)F)cc(N3CCN(Cc4nc(C(C)C)cs4)CC3)nc12` [Example 528, 5-(4-((4-Isopropylthiazol-2-yl)methyl)piperazin-1-yl)-N-methyl-7-(trifluoromethyl)thieno[3,2-b]pyridine-3-carboxamide] was run?
Its IC50 is < 100 nM.

With `CNC(=O)c1csc2c(C(F)(F)F)cc(C3CC4(C3)CN(C(=O)OCCOC(F)(F)F)C4)nc12` [Example 576, 2-(Trifluoromethoxy)ethyl 6-(3-(methylcarbamoyl)-7-(trifluoromethyl)thieno[3,2-b]pyridin-5-yl)-2-azaspiro[3.3]heptane-2-carboxylate] as the compound, how does the IC50 (UGT8 [2]) read?
The IC50 was < 100 nM.

For `CNC(=O)c1csc2c(C(F)(F)F)cc(N3CCC(NC(=O)OCCC#N)CC3)nc12` [Example 505, 2-Cyanoethyl (1-(3-(methylcarbamoyl)-7-(trifluoromethyl)thieno[3,2-b]pyridin-5-yl)piperidin-4-yl)carbamate], which IC50 (UGT8 [2]) is on record?
Its IC50 is < 100 nM.

`CNC(=O)c1csc2c(Cl)cc(N3CCC(OC(=O)NCC4CC4)CC3)nc12` [Example 449, 1-(7-Chloro-3-(methylcarbamoyl)thieno[3,2-b]pyridin-5-yl)piperidin-4-yl (cyclopropylmethyl)carbamate] was tested. Which IC50 (UGT8 [2]) did it give?
The IC50 was < 100 nM.

For `COC(=O)c1csc2c(C(F)(F)F)cc(N3CCC(NC(=O)OC(C)(C)C)C3)nc12` (centres unmarked) [Example 659, Methyl 5-[3-(tert-butoxycarbonylamino)pyrrolidin-1-yl]-7-(trifluoromethyl)thieno[3,2-b]pyridine-3-carboxylate], which IC50 (UGT8 [2]) is on record?
Its IC50 is 100 to 1000 nM.

For `CNC(=O)c1csc2c(C(F)(F)F)cc(OC3CN(C(=O)OCCOC(F)(F)F)C3)nc12` [Example 256, 2-(Trifluoromethoxy)ethyl 3-((3-(methylcarbamoyl)-7-(trifluoromethyl)thieno[3,2-b]pyridin-5-yl)oxy)azetidine-1-carboxylate], which IC50 (UGT8 [2]) is on record?
The IC50 was < 100 nM.

How did the IC50 (UGT8 [2]) turn out when `CNC(=O)c1csc2c(C(F)(F)F)cc(CC3CCN(C(=O)OCCOC(F)(F)F)CC3)nc12` [Example 632, 2-(Trifluoromethoxy)ethyl 4-((3-(methylcarbamoyl)-7-(trifluoromethyl)thieno[3,2-b]pyridin-5-yl)methyl)piperidine-1-carboxylate] was run?
The IC50 was < 100 nM.

Which IC50 (UGT8 [2]) does the source give for `CNC(=O)c1csc2c(C(F)(F)F)cc(OC3CCN(C(=O)NCC4CC4)C3)nc12` (centres unmarked) [Example 590, 5-((1-((Cyclopropylmethyl)carbamoyl)pyrrolidin-3-yl)oxy)-N-methyl-7-(trifluoromethyl)thieno[3,2-b]pyridine-3-carboxamide] here?
The IC50 was 100 to 1000 nM.

For `CNC(=O)c1csc2c(C(F)(F)F)c(Cl)c(N3CCN(CC(=O)NC(C)C)CC3)nc12` [Example 636, 6-Chloro-5-[4-[2-(isopropylamino)-2-oxo-ethyl]piperazin-1-yl]-N-methyl-7-(trifluoromethyl)thieno[3,2-b]pyridine-3-carboxamide], which IC50 (UGT8 [2]) is on record?
Its IC50 is 100 to 1000 nM.

How did the IC50 (UGT8 [2]) turn out when `CNC(=O)c1csc2c(C(F)(F)F)cc(OC3CCN(C(=O)OC4CN(C)CC4F)CC3)nc12` (centres unmarked) [Example 835, 4-Fluoro-1-methylpyrrolidin-3-yl 4-((3-(methylcarbamoyl)-7-(trifluoromethyl)thieno[3,2-b]pyridin-5-yl)oxy)piperidine-1-carboxylate] was run?
Its IC50 is 100 to 1000 nM.

How did the IC50 (UGT8 [2]) turn out when `CC(C)(C)NC(=O)OC1CCN(c2cc(C(F)(F)F)c3scc(C(=O)N4CCC4)c3n2)CC1` [Example 422, 1-(3-(Azetidine-1-carbonyl)-7-(trifluoromethyl)thieno[3,2-b]pyridin-5-yl)piperidin-4-yl tert-butylcarbamate] was run?
The IC50 was 100 to 1000 nM.
